{"source": "patent US20110158944A1", "about": "“BRAF BIOMARKERS” (priority 2007, published 2011)", "experiment_in_all_cases": "Cell proliferation IC50 (Cell Titer Glo)", "assay_type_in_all_cases": "cell-based", "key": {"Jijoye": {"system": "Jijoye", "settings": "Homo sapiens, 96 h, read-out: IC50 cell proliferation", "experimental": "(§1) IC50 Cell proliferation measurements. Cell proliferation was assessed in the 41 tumor cell lines set forth in Table 2 after 4 days of continuous exposure to either the ERK1/2 inhibitor, compound a or the MEK inhibitor compound b (PD0325901) using Promega Cell Titer Glo reagent (Promega Corp, Madison, Wis.). Promega's CellTiter-Glo™ Luminescent Cell Viability Assay is a sensitive method for assaying cell proliferation using a stable form of luciferase to measure ATP as an indicator of viable cells. This reagent allows a homogeneous method of determining cell number by quantitation of ATP. The luciferase luminescent signal produced is proportional to the number of viable cells present in culture.\n(§2) A 1000× compound dose response curve, containing 8 dilutions of each compound, was prepared on a 96-well plate. Compounds were diluted in 100% DMSO to the following (1000×) concentrations: compound b: 1000 μM, 333 μM, 111 μM, 37 μM, 12 μM, 4.1 μM, 1.4 μM and 0.5 μM; compound a: 3000 μM, 1000 μM, 333 μM, 111 μM, 37 μM, 12 μM, 4.1 μM and 1.4 μM. This compound source plate was sealed and kept frozen between uses.\n(§3) Cells were grown in RPMI 1640 medium supplemented with 10% Fetal Bovine Serum, 2 mM Glutamine and non-essential amino acids or DMEM/F12 Media containing the same supplements. On day zero, cells were trypsinized, counted and plated into wells of a 96-well Wallac TC Isoplate (Perkin-Elmer Wallac, Gaithersburg, Md.) at a density of 1500-2000 cells per well in 50 μl of complete media. An additional 6-8 replicate well of the cells at the same density were plated on a separate Wallac TC Isoplate. This plate was developed on day 1 to determine the cell-growth baseline.\n(§4) On day 1 of treatment, compound was diluted to 2× in media and immediately added to the cells as follows: one ml of media was added to each well of a deep-well 96-well plate and 2 μl of 1000× compound was added with mixing to make 2× compound in media. 50 μl of the media containing 2× compound was added to the cell plates in duplicate points so the final concentrations for each well were as outlined in Table 1. The plates were then returned to a 37° C. incubator and left undisturbed for 4 days. The day 1 (baseline) plates were developed by first adding 50 μl media (without compound) to bring the volume in each well to 100 μl, then adding 100 μl of Cell Titer Glo reagent (as below).\n(§5) After four days of treatment, the plates were developed with Cell Titer Glo (CTG) reagent (Promega Corp.; Madison, Wis.). Reagent was reconstituted as described in the product insert. 100 μl of reagent was added to all treatment and control wells and the plates were gently shaken for 5 minutes then incubated an additional 5 minutes before reading in an Analyst AD (Molecular Devices Corporation; Sunnyvale, Calif.) using the Luminescence settings.\n(§6) Data was analyzed in Excel using XLfit 4.2, fit model #205 (Dose Response One Site)"}, "H716": {"system": "H716", "settings": "Homo sapiens, NCI-H716, 96 h, read-out: IC50 cell proliferation", "experimental": "as §1, §2, §3, §4, §5, §6"}, "SJCRH30": {"system": "SJCRH30", "settings": "Homo sapiens, 96 h, read-out: IC50 cell proliferation", "experimental": "as §1, §2, §3, §4, §5, §6"}, "Jurkat": {"system": "Jurkat", "settings": "Homo sapiens, 96 h, read-out: IC50 cell proliferation", "experimental": "as §1, §2, §3, §4, §5, §6"}, "A2058": {"system": "A2058", "settings": "Homo sapiens, read-out: IC50 cell proliferation", "experimental": "as §1, §2, §3, §4, §5, §6"}, "Colo-205": {"system": "Colo-205", "settings": "Homo sapiens, read-out: IC50 cell proliferation", "experimental": "as §1, §2, §3, §4, §5, §6"}, "Hs695T": {"system": "Hs695T", "settings": "Homo sapiens, Hs 695T, 96 h, read-out: IC50 cell proliferation", "experimental": "as §1, §2, §3, §4, §5, §6"}, "SK-Mel-28": {"system": "SK-Mel-28", "settings": "Homo sapiens, read-out: IC50 cell proliferation", "experimental": "as §1, §2, §3, §4, §5, §6"}, "SK-Mel-1": {"system": "SK-Mel-1", "settings": "Homo sapiens, read-out: IC50 cell proliferation", "experimental": "as §1, §2, §3, §4, §5, §6"}, "KG-1": {"system": "KG-1", "settings": "Homo sapiens, read-out: IC50 cell proliferation", "experimental": "as §1, §2, §3, §4, §5, §6"}, "BxPc-3": {"system": "BxPc-3", "settings": "Homo sapiens, read-out: IC50 cell proliferation", "experimental": "as §1, §2, §3, §4, §5, §6"}, "Hs294T": {"system": "Hs294T", "settings": "Homo sapiens, Hs 294T, 96 h, read-out: IC50 cell proliferation", "experimental": "as §1, §2, §3, §4, §5, §6"}, "RPMI-7951": {"system": "RPMI-7951", "settings": "Homo sapiens, read-out: IC50 cell proliferation", "experimental": "as §1, §2, §3, §4, §5, §6"}, "Caki-1": {"system": "Caki-1", "settings": "Homo sapiens, read-out: IC50 cell proliferation", "experimental": "as §1, §2, §3, §4, §5, §6"}, "A673": {"system": "A673", "settings": "Homo sapiens, read-out: IC50 cell proliferation", "experimental": "as §1, §2, §3, §4, §5, §6"}, "SK-Mel-5": {"system": "SK-Mel-5", "settings": "Homo sapiens, read-out: IC50 cell proliferation", "experimental": "as §1, §2, §3, §4, §5, §6"}}, "note": "Read-outs that look alike come from different tables or passages of the source.", "data": [{"smiles": "O=C(Nc1ccc2[nH]nc(-c3ccncc3)c2c1)C1CCN(CC(=O)N2CCN(c3ccc(-c4ncccn4)cc3)CC2)C1", "note": "(centres unmarked) [cpd. a]", "values": [{"measurement": "IC50", "setting": "Jijoye; Jijoye, Leukemia, BRAF V600V Wild type, 4 days continuous exposure", "value": "> 3000", "unit": "nM"}, {"measurement": "IC50", "setting": "H716; H716, Colon, BRAF V600V Wild type, 4 days continuous exposure", "value": 334, "unit": "nM"}, {"measurement": "IC50", "setting": "SJCRH30; SJCRH30, Rhabdomyosarcoma, BRAF V600V Wild type, 4 days continuous exposure", "value": 2000, "unit": "nM"}, {"measurement": "IC50", "setting": "Jurkat; Leukemia, BRAF V600V Wild type, 4 days continuous exposure", "value": "> 3000", "unit": "nM"}, {"measurement": "IC50", "setting": "A2058; 96 h, A2058, Melanoma, BRAF V600E Heterozygous, 4 days continuous exposure", "value": 120, "unit": "nM"}, {"measurement": "IC50", "setting": "Colo-205; 96 h, Colo-205, Colon, BRAF V600E Homozygous, 4 days continuous exposure", "value": 36, "unit": "nM"}, {"measurement": "IC50", "setting": "Hs695T; Hs695T, Melanoma, BRAF V600E Heterozygous, 4 days continuous exposure", "value": 165, "unit": "nM"}, {"measurement": "IC50", "setting": "SK-Mel-28; 96 h, SK-Mel-28, Melanoma, BRAF V600E Homozygous, 4 days continuous exposure", "value": 85, "unit": "nM"}, {"measurement": "IC50", "setting": "SK-Mel-1; 96 h, SK-Mel-1, Melanoma, BRAF V600E Heterozygous, 4 days continuous exposure", "value": 37, "unit": "nM"}, {"measurement": "IC50", "setting": "KG-1; 96 h, KG-1, Leukemia, BRAF V600V Wild type, 4 days continuous exposure", "value": 900, "unit": "nM"}, {"measurement": "IC50", "setting": "BxPc-3; 96 h, BxPc-3, Pancreas, BRAF V600V Wild type, 4 days continuous exposure", "value": 184, "unit": "nM"}, {"measurement": "IC50", "setting": "Hs294T; Hs294T, Melanoma, BRAF V600E Heterozygous, 4 days continuous exposure", "value": 1720, "unit": "nM"}, {"measurement": "IC50", "setting": "RPMI-7951; 96 h, RPMI-7951, Melanoma, BRAF V600E Heterozygous, 4 days continuous exposure", "value": 344, "unit": "nM"}, {"measurement": "IC50", "setting": "Caki-1; 96 h, Caki-1, Renal, BRAF V600V Wild type, 4 days continuous exposure", "value": 450, "unit": "nM"}, {"measurement": "IC50", "setting": "A673; 96 h, A673, Rhabdomyosarcoma, BRAF V600E Heterozygous, 4 days continuous exposure", "value": "> 3000", "unit": "nM"}, {"measurement": "IC50", "setting": "SK-Mel-5; 96 h, SK-Mel-5, Melanoma, BRAF V600E Heterozygous, 4 days continuous exposure", "value": 66, "unit": "nM"}]}, {"smiles": "O=C(NOC[C@H](O)CO)c1ccc(F)c(F)c1Nc1ccc(I)cc1F", "note": "[cpd. b, PD0325901]", "values": [{"measurement": "IC50", "setting": "Jijoye", "value": 1000, "unit": "nM"}, {"measurement": "IC50", "setting": "H716", "value": 164, "unit": "nM"}, {"measurement": "IC50", "setting": "SJCRH30", "value": 1000, "unit": "nM"}, {"measurement": "IC50", "setting": "Jurkat", "value": 1000, "unit": "nM"}, {"measurement": "IC50", "setting": "A2058; A2058, 96 h", "value": 10, "unit": "nM"}, {"measurement": "IC50", "setting": "Colo-205; COLO 205, 96 h", "value": 5, "unit": "nM"}, {"measurement": "IC50", "setting": "Hs695T", "value": 29, "unit": "nM"}, {"measurement": "IC50", "setting": "SK-Mel-28; SK-MEL-28, 96 h", "value": 10, "unit": "nM"}, {"measurement": "IC50", "setting": "SK-Mel-1; SK-MEL-1, 96 h", "value": 3, "unit": "nM"}, {"measurement": "IC50", "setting": "KG-1; KG-1, 96 h", "value": 40, "unit": "nM"}, {"measurement": "IC50", "setting": "BxPc-3; BXPC-3, 96 h", "value": 119, "unit": "nM"}, {"measurement": "IC50", "setting": "Hs294T", "value": 71, "unit": "nM"}, {"measurement": "IC50", "setting": "RPMI-7951; RPMI-7951, 96 h", "value": 69, "unit": "nM"}, {"measurement": "IC50", "setting": "Caki-1; CAKI-1, 96 h", "value": 180, "unit": "nM"}, {"measurement": "IC50", "setting": "A673; A673, 96 h", "value": 1000, "unit": "nM"}, {"measurement": "IC50", "setting": "SK-Mel-5; SK-MEL-5, 96 h", "value": 8, "unit": "nM"}]}]}
